US4243681A, “Alkylthiophenoxypropanolamines and pharmaceutical compositions and uses thereof” (priority 1979, dated 1981)
Structures can show the parent of a compound that is named as a salt.

Experiments:
[1] = system: perfused dog hind limb; assay: Peripheral vasodilator activity, perfused dog hind limb (anesthetized dog); format: in vivo; details: for pressure reduction (findings, range over compounds): infusion dose 1.0 mg./min.
Protocol: Test Method. Mongrol dogs of either sex weighing between 11 and 16 kg., each, were anesthetized with pentobarbital (30 mg./kg.) administered intravenously. The left brachial vein was cannulated and pentobarbital infused continuously throughout the experiment at a rate of 5 mg./kg./hr. A tracheotomy was performed and dogs ventilated mechanically with room air at a rate of 18 strokes/min. and a volume equivalent to 20 ml./kg. The vagi were sectioned bilaterally in the mid-cervical region of the neck. The right brachial vein and artery were cannulated to inject drugs and to monitor blood pressure via a Statham pressure transducer, respectively. All measurements were recorded on a Beckman-Offner dynograph. The abdominal aorta was exposed through midline incision and a loose ligature placed around the aorta distal to the left renal artery. The right (donor) and left (recipient) femoral arteries were exposed for cannulation and subsequent hind-limb perfursion. Following intravenous administration of heparin (5 mg/kg.) and gallamine triethiodide (2 mg./kg.), the right femoral artery was cannulated and the tip of the catheter advanced into the abdominal aorta to the level of the renal arteries. The left femoral artery was cannulated and the hind-limb perfused using a Harvard Perfusion pump. The ligature previously placed around the aorta was subsequently tied to minimize collateral circulation. […] Perfusion pressure, measured at a point distal to the perfusion pump was set equal to 150 mm Hg. by adjusting pump speed. Blood flow to the limb was determined volumetrically at the conclusion of the experiment. The test agent was administered by infusion at a rate of from 0.1-1.0 mg./min. for a six-minute period and maximum reduction in pressure determined. One to three animals were employed per test agent. […] This protocol precludes effects resulting from animal variation thus permitting a direct side-by-side comparison of vasodilating activity.

[2] = target: T1, adrenergic beta-receptor (Cavia porcellus, UniProt Q8K4Z4); assay: Beta-adrenergic blocking activity in the isolated guinea pig trachea (isoproterenol); format: cell-based; details: for Beta-Adrenergic Blocking Potency: potency relative to propanol (equals one), isoproterenol 0.1 mcg./ml.
T1 construct: Tracheas excised from adult guinea pigs; from tissue; host or cells: guinea pig trachea (spirally cut segments)
T1 sequence (Q8K4Z4 whole entry): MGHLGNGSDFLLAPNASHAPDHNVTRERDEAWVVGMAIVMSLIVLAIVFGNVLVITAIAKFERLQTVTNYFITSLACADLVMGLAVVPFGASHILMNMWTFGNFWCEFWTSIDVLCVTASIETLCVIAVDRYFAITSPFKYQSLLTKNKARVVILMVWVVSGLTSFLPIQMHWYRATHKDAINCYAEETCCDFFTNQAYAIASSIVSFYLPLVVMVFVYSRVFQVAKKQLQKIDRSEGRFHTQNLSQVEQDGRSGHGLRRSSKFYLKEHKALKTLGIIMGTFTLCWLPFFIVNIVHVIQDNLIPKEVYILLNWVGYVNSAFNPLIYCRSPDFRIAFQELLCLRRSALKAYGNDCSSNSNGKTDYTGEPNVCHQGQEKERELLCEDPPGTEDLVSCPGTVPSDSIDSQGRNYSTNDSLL
Protocol: Test Method. […] The lower end of a tracheal segment is fixed to a stationary glass rod and the upper end is threaded to an isometric tension transducer. Changes in the spontaneous tonus of the tracheal smooth muscle are monitored via the transducer and recorded continuously on an electronic recorder. Adrenergic beta-receptor blocking activity is determined by the ability of a test agent to inhibit the response of the isolated tissue to the adrenergic beta-stimulant "isoproterenol" at a concentration of 0.1 mcg./ml. bath fluid. The tissues are exposed to the test agent solution for a 15-min. interval prior to the addition of isoproterenol to the bath fluid. Beta-receptor blocking potency of a test drug is ascertained from concentration-response relationships wherein the response is expressed as a percent inhibition of isoproterenol-induced tissue response. […] Each drug solution is added to the tissue bathing medium at a constant volume of 0.2 ml./ml. of bath fluid and only one test drug concentration is employed for an individual tissue segment. Potency of the test agent relative to that of the beta-adrenergic blocking agent "propanolol" as a reference standard is assessed by comparing the IC50 values.

[3] = system: human platelet-rich plasma; assay: Inhibition of platelet aggregation in vitro (ADP or collagen induced; antithrombogenic activity); format: cell-based; details: for ED50 ADP (inhibition of platelet aggregation): aggregation induced by 1 mcg. ADP; for ED50 Coll (inhibition of platelet aggregation): minimal amount of collagen producing maximal aggregation
Protocol: Test Method. A method similar to that described in Born, Nature 194, 927 (1962) and O'Brien, J. Clinical Pathology 15, 446 (1962). This test comprises a nephelometric method in which the change in turbidity of a specimen of human platelet-rich plasma is measured on causation of platelet aggregation by addition of adenosine diphosphate (ADP) or collagen as the thrombogenic inducing agent. An increase in transmittance light occurs when the thrombogenic agent is added to the specimen of platelet-rich plasm due to clumping of platelets. Efficacy of the test compound is determined by ability to prevent the clumping and concommitant increase in transmittance. Various concentrations of the test agent are tested and that concentration causing a 50% reduction in the thrombogenic response is determined from a concentration-response curve.

[4] = system: rabbit thoracic aorta; assay: Isolated rabbit thoracic aorta, antispasmodic activity vs. potassium chloride; format: cell-based, rabbit (New Zealand White); details: for Antispasmodic Potency: potency relative to papaverine (equals one), from pA2 vs. potassium chloride; for antispasmodic activity (in words) / antispasmodic potency relative to prior art compounds A and B: potassium chloride-induced spasms
Protocol: (§1) Test Method. Antispasmodic activity was assessed in vitro by determining the effect of the test substance on induced contraction of arterial smooth muscle as follows. Adult, male, New Zealand White rabbits (body weight 2.5-4 kg.) were used. Each rabbit was killed by i.v. air injection. The thorax was opened and the descending thoracic aorta removed and placed in Kreb's-bicarbonate solution. Extraneous tissue was removed and the aorta was cut spirally along its entire length. Four spiral segments, each approximately 2 cm. in length (unstretched), were obtained from each thoracic aorta. […] The bath medium surrounding the aortic spiral (Kreb's-bicarbonate solution) was maintained at 37.5°C. and constantly aerated with 95% O2 :5% CO2. Activity of the aortic smooth muscle was recorded on an electronic polygraph via its connection to the tension transducer. After an equilibration period of 60 min., a cumulative dose-response curve was obtained to an agonist (e.g. potassium chloride or norepinephrine) and the tissue then washed. Seventy-five min. later, a second cumulative dose-response curve to the agonist was obtained and the tissue washed again. Sixty min. later, a test drug solution was added to the tissue bath fluid and, after 15 min., drug exposure and, without washing, a third and final agonist-response curve was obtained. All additions to the bath fluid were 0.1 ml. volumes of aqueous solutions.

[5] = system: alpha-adrenergic; assay: Isolated rabbit thoracic aorta, antispasmodic (anti-alpha-adrenergic) activity vs. norepinephrine; format: cell-based, rabbit (New Zealand White); details: norepinephrine as agonist
Protocol: as §1, with “solutions. […] Selective activity against norepinephrine-induced spasms is indicative of alpha-adrenergic blocking (i.e. antispasmodic) activity. […] Phentolamine is an alpha-adrenergic blocking agent and a standard reference in the art. […] This experiment illustrates that the instant compounds are non-anti-alpha-adrenergic antispasmodic agents in that they have a substantial direct smooth muscle relaxant effect (as shown in Example 34) relatively uncomplicated by any significant selective alpha-adrenergic blocking effect.” for “solutions.”

[6] = infusion rate 0.3 mg./min., side-by-side comparison in same animals
[7] = infusion rate 1.0 mg./min., side-by-side comparison in same animals

Structure (SMILES) | Pressure Decrease ([1]; infusion rate 0.3 mg./min.) | Pressure Decrease ([1]; infusion rate 1.0 mg./min.) | Beta-Adrenergic Blocking Potency [2] | ED50 ADP (inhibition of platelet aggregation) [3] | ED50 Coll (inhibition of platelet aggregation) [3] | Antispasmodic Potency [4] | anti-alpha-adrenergic activity relative to phentolamine [5] | pressure reduction (findings, range over compounds) [1] | Pressure Decrease [1, 6] | Pressure Decrease [1, 7] | beta-adrenergic blocking activity (in words) [2] | antispasmodic activity (in words) [4] | antispasmodic potency relative to prior art compounds A and B [4] | anti-alpha-adrenergic activity (in words) [5]
CCCCCCCCNCC(O)COc1cccc(SC(C)C)c1.Cl (stereo not shown) [Example 3, 1-[3-[(1-Methylethyl)thio]phenoxy]-3-(octylamino)-2-propanol Hydrochloride] | -20 Millimeters of mercury | -87 Millimeters of mercury | < 0.001 | 53 Microgram/0.5 ml. plateletrich human plasma | 24 Microgram/0.5 ml. plateletrich human plasma | 0.7 |  |  |  |  |  |  |  | 
CCCCCCCCNCC(O)COc1ccccc1SC.Cl (stereo not shown) [Example 8, 1-[2-(Methylthio)phenoxy]-3-(octylamino)-2-propanol Hydrochloride] | -15 Millimeters of mercury | -64 Millimeters of mercury | 0.004 | 65 Microgram/0.5 ml. plateletrich human plasma | 32 Microgram/0.5 ml. plateletrich human plasma | 2.6 | 1-2% |  |  |  |  |  |  | 
CSc1ccccc1OCC(O)CNC(C)C (stereo not shown) [Test agent A, 1-(isopropylamino)-3-[2-(methylthio)phenoxy]-2-propanol, reference compound] |  |  | 1.0 | 137 Microgram/0.5 ml. plateletrich human plasma | 33 Microgram/0.5 ml. plateletrich human plasma | 0.04 | 1-2% | 27-29 mm Hg | -20 Millimeters of mercury | -27 Millimeters of mercury | substantial activity | relatively weak activity |  | 
CCCCCCCCCCCCNCC(O)COc1ccc(SC(C)C)cc1.Cl (stereo not shown) [Example 4, 1-[4-[(1-Methylethyl)thio]phenoxy]-3-(dodecylamino)-2-Propanol Hydrochloride] |  |  | < 0.001 |  |  | 0.08 |  |  |  |  |  |  | twice as potent | 
CCCCCCCCNCC(O)COc1ccc(SC)cc1C (stereo not shown) [Example 7, 1-[2-methyl-4-(methylthio)phenoxy]-3-(octylamino)-2-propanol] | -56 Millimeters of mercury | -80 Millimeters of mercury | < 0.0006 | 82 Microgram/0.5 ml. plateletrich human plasma | 39 Microgram/0.5 ml. plateletrich human plasma | 0.8 |  |  |  |  |  |  |  | 
CSc1ccc(OCC(O)CNC(C)C)cc1 (stereo not shown) [Test agent B, 1-(isopropylamino)-3-[4-(methylthio)phenoxy]-2-propanol, reference compound] |  |  | 0.2 | 107 Microgram/0.5 ml. plateletrich human plasma | 28 Microgram/0.5 ml. plateletrich human plasma | 0.04 |  | 27-29 mm Hg | -3 Millimeters of mercury | -29 Millimeters of mercury | substantial activity | relatively weak activity |  | essentially inactive
COc1ccc(Cc2nccc3cc(OC)c(OC)cc23)cc1OC [Papaverine, reference compound] | -31 Millimeters of mercury |  |  |  |  |  |  |  |  |  |  |  |  | 
CCCCCCCCNCC(O)COc1ccc(SC)cc1 (stereo not shown) [Example 1, 1-[4-(Methylthio)phenoxy]-3-(octylamino)-2-propanol] | -22 Millimeters of mercury | -59 Millimeters of mercury | < 0.001 | 69 Microgram/0.5 ml. plateletrich human plasma | 42 Microgram/0.5 ml. plateletrich human plasma |  |  |  |  |  |  |  |  | 
CC(C)Sc1ccc(OCC(O)CNCCC2CCCCC2)cc1 (stereo not shown) [Example 5, 1-[(2-cyclohexylethyl)amino]-3-[4-[(1-methylethyl)thio]phenoxy]-2-propanolhydrochloride] | -63 Millimeters of mercury | -87 Millimeters of mercury | < 0.0006 | 56 Microgram/0.5 ml. plateletrich human plasma | 47 Microgram/0.5 ml. plateletrich human plasma | 2.4 |  |  |  |  |  |  |  | 
CC(C)Sc1ccc(OCC(O)CNCCCCC2CCCCC2)cc1 (stereo not shown) [Example 6, 1-[(4-cyclohexylbutyl)amino]-3-[4-[(1-methylethyl)thio]phenoxy]-2-propanolhydrochloride] | -47 Millimeters of mercury | -74 Millimeters of mercury | < 0.002 | 53 Microgram/0.5 ml. plateletrich human plasma | 29 Microgram/0.5 ml. plateletrich human plasma | 0.02 |  |  |  |  |  |  | about 1/2 | 
